Experimental data taken from patent US20250163384A1, “ORGANOIDS DERIVED FROM HUMAN COLONIC CELLS AND METHODS OF MAKING AND USING THE SAME” (priority 2022, published 2025).

Tests used:
Format in all cases: cell-based, human
[1] = system: ERK; assay: ERK kinase translocation reporter (ERK-KTR) activity in GiLA1 organoid monolayers; conditions: for time to activation of ERK: GiLA1 monolayers, ERK activation methods compared
Experimental: 384-well plates were imaged with fluorescent microscopy on a Nikon Eclipse TI2 automated microscope. For quantification of wave dynamics, organoids were imaged every 10-30 min. Tracking and segmentation of single cells in time lapse images in FIG. 2 was performed using the MATLAB program p53Cinema (Reyes et al., 2019). Analysis of the extracted data was performed in MATLAB. For the ERK activity heat maps in FIG. 3, images of the ERK-KTRmRuby2 and the H2B-iRFP670 were captured every 7 min for 24 hr. For each frame, individual nuclei were segmented using a MATLAB script developed in-house that identifies nuclei based on the H2B-iRFP670 images. The cytoplasmic ERK-KTRmRuby2 signal was obtained by creating a two pixel wide annulus surrounding the nucleus and averaging the intensity. Cells with active ERK were identified as having a mean ERK-KTR cytoplasmic signal>the mean ERK-KTR nuclear signal. The density-based spatial clustering of applications with noise algorithm (dbscan, MATLAB, 2021b) was performed on the centroids of ERK active cells to identify spatial clusters of cells with active ERK. A boundary was drawn around the spatial clusters using the boundary algorithm in MATLAB. The ERK positive regions of each frame were summed up to generate the heat map in MATLAB. MAPK/ERK signaling is a critical regulatory pathway involved in maintaining homeostasis of epithelia in the gut (Wei et al., 2020). To assess ERK activity in human organoid monolayers over time, we utilized a well-characterized ERK kinase translocation reporter (ERK-KTR) (Regot et al., 2014). The ERK-KTR utilizes a bipartite nuclear localization signal (NLS) and nuclear export signal (NES) to transform ERK kinase activity into a nuclear to cytoplasmic shuttling event that is easily quantified by microscopy in organoid monolayers (FIG. 3A). We transduced the GiLA1 organoid line with a H2B-iRFP670 nuclear marker and ERK-KTR-mRuby2 reporter to perform nuclear and cytoplasmic segmentation and calculate nuclear-to-cytoplasmic ratios of the ERK-KTR (FIG. 3A, FIG. 3B and FIG. 9A).

[2] = system: GiLA1 organoid monolayers; assay: Tissue patterning (nodes / cell clusters) in GiLA1 organoid monolayers; conditions: for speed of node loss / patterning defects: GiLA1 monolayers, ERK activation methods compared
Experimental: SCREENSTAR 384-well black plates (Grenier #781866) were coated with ice cold Matrigel (CB40230C) diluted 1:40 in Serum-free Advanced-DMEM F12 media (SFM) for 1 hr. Monolayers were prepared using our previously described protocol (Thorne et al., 2018; Sanman et al., 2020). Briefly, cells were removed from 3D Matrigel and resuspended in ice cold SFM and washed three times using ice cold SFM. Organoids were then dissociated by resuspension in Trypsin+10 μM Y-27 for 4 min followed by quenching in DMEM supplemented with 10% FBS and washing. Coating media was removed from 384-well plates and organoids plated at 7000 cells/well after counting using hemocytometer and cultured for 24 hr. Seeding media was then removed and replaced with complete LWRN media and changed daily for 7 days until cultures became confluent and tissue patterning was observed.
(§1) 384-well plates were imaged with fluorescent microscopy on a Nikon Eclipse TI2 automated microscope. For quantification of wave dynamics, organoids were imaged every 10-30 min. Tracking and segmentation of single cells in time lapse images in FIG. 2 was performed using the MATLAB program p53Cinema (Reyes et al., 2019). Analysis of the extracted data was performed in MATLAB. For the ERK activity heat maps in FIG. 3, images of the ERK-KTRmRuby2 and the H2B-iRFP670 were captured every 7 min for 24 hr. For each frame, individual nuclei were segmented using a MATLAB script developed in-house that identifies nuclei based on the H2B-iRFP670 images. The cytoplasmic ERK-KTRmRuby2 signal was obtained by creating a two pixel wide annulus surrounding the nucleus and averaging the intensity. Cells with active ERK were identified as having a mean ERK-KTR cytoplasmic signal>the mean ERK-KTR nuclear signal. The density-based spatial clustering of applications with noise algorithm (dbscan, MATLAB, 2021b) was performed on the centroids of ERK active cells to identify spatial clusters of cells with active ERK. A boundary was drawn around the spatial clusters using the boundary algorithm in MATLAB. The ERK positive regions of each frame were summed up to generate the heat map in MATLAB.
Since ERK waves are largely restricted to the post-mitotic, differentiated compartments in our gut organoid monolayer model, we hypothesized that ERK waves may help regulate the patterning observed in the GiLA1 monolayers by restricting the stem cell compartment. To test this hypothesis, we asked if global activation of ERK activity could disrupt the patterning of the organoid monolayers. a well-established activator of the ERK pathway, phorbol 12-myristate 13-acetate (PMA) was used to acutely activate ERK signaling across the monolayer. […] To determine if nodes re-formed once ERK activity returned to baseline, we treated GiLA1 monolayers with a pulse of 100 nM PMA for 1 min.

[3] = system: Wnt signaling; assay: TopGFP Wnt reporter in organoid monolayers; conditions: 3 μM pyrvinium, 72 hr
Experimental: Organoids were treated with either 3 μM pyrvinium to block Wnt signaling or 10 μM GSK-3 inhibitor to stimulate the Wnt pathway for 72 hr. Cells were fixed and stained for DAPI. Total GFP fluorescence across the monolayer was measured and normalized by mCherry control to obtain TopGFP measurements per condition. Significance between treatment groups was determined by t-test. Scale bar=100 μm.

[4] = system: GiLA1 organoid monolayers; assay: Apoptosis-induced ERK waves and cell movement (particle image velocimetry) in GiLA1 organoid monolayers; conditions: 5 μM Gefitinib (FIG. 3G), after an apoptotic event
Experimental: as §1, with “The ERK positive regions of each frame were summed up to generate the heat map in MATLAB.” left out
To determine the properties of the ERK waves, about 450 cells were tracked and their ERK activity was assessed over time following an apoptotic event (FIG. 3D, left panel and FIG. 3E). […]

| SMILES | time to activation of ERK [1] | speed of node loss / patterning defects [2] | Wnt signaling (TopGFP normalized by mCherry) [3] | ERK waves and tropism towards dying cells [4] | ERK activity after continuous treatment ([1]; 100 nM PMA, 20-30 min (FIGS. 4B and C)) | ERK levels after pulse treatment, later ([1]; pulse of 100 nM PMA for 1 min, after washout) | ERK activation after pulse treatment ([1]; pulse of 100 nM PMA for 1 min, read after 30 min) | loss of patterning (cell clusters) ([2]; 100 nM PMA, by 24 hr post-treatment (FIG. 4D-F)) | node and ERK-KTR activity after pulse, washout and chase ([2]; PMA pulse 1 min, washout, chase for 24 hr (FIG. 4G bottom)) | nodes after pulse treatment ([2]; pulse of 100 nM PMA for 1 min) | re-formation of nodes after pulse treatment ([2]; pulse of 100 nM PMA for 1 min, by 48 hr (FIG. 4G)) |
| --- | --- | --- | --- | --- | --- | --- | --- | --- | --- | --- | --- |
| Cc1cc(/C=C/c2ccc3cc(N(C)C)ccc3[n+]2C)c(C)n1-c1ccccc1 [pyrvinium] | within hours | took days to induce patterning defects | Inhibits Wnt Signaling |  |  |  |  |  |  |  |  |
| COc1cc2ncnc(Nc3ccc(F)c(Cl)c3)c2cc1OCCCN1CCOCC1 [Gefitinib] |  |  |  | did not induce ERK waves or display tropism towards dying cells |  |  |  |  |  |  |  |
| CCCCCCCCCCCCCC(=O)O[C@@H]1[C@@H](C)[C@@]2(O)[C@@H](C=C(CO)C[C@]3(O)C(=O)C(C)=C[C@@H]23)[C@@H]2C(C)(C)[C@]12OC(C)=O [PMA, phorbol 12-myristate 13-acetate] | within hours | rapid node loss |  |  | immediate hyperactivated ERK was observed in all cells | ERK levels returned to normal | ERK activation in all cells | almost complete loss of cell clusters | node loss and resuppression of ERK activity | node loss | nodes did not re-form |
